{
  "source": "patent US20100204286A1",
  "about": "“METHOD FOR REDUCING GASTROINTESTINAL ADVERSE EFFECTS OF CYTOTOXIC AGENTS” (priority 2009, published 2010)",
  "key": {"[1]": {"tested_on": "radiation-induced proctitis", "assay": "Rat model of radiation-induced proctitis (endoscopy, histopathology, body weight)", "type": "in vivo", "details": "for proctitis severity (endoscopy, day 8): 17.5 Gy on day 0", "excerpt": "A rat model was used to determine whether ORE1001 can reduce severity of radiation-induced proctitis, as assessed by endoscopy, and can reduce histopathological indicators of radiation-induced proctitis. This is a validated model, as described for example in the publications cited individually below and incorporated herein by reference.\nFemale Lewis rats of body weight 175-200 g and 6-8 weeks old were randomized into 3 groups of 8 animals each, for induction of proctitis by radiation as described below. In addition, a group of 8 female Lewis rats of body weight 175-200 g and 6-8 weeks old were followed as untreated, non-irradiated controls. Animals were acclimated prior to study commencement. The study was performed in animal rooms provided with filtered air at a temperature of 70±5° F. (˜21±3° C.) and relative humidity of 50±20%, and a 12 h/12 h light/dark cycle. Animals were fed with LabDiet 5053 sterile irradiated rat chow. Water was provided ad libitum.\nProctitis was induced by a single 17.5 Gy dose of radiation at a rate of 1 Gy/minute administered to each animal on day 0. Lead shielding was used to cover the animal except for a 3×4 cm area of the lower pelvis, permitting exposure to radiation of an approximately 2 cm length of rectum and distal descending colon. Radiation was generated with a Kimtron 160 kV, 15 mA source at a focal distance of 30 cm, hardened with a 0.35 mm Cu filtration system. Prior to irradiation, animals were anesthetized with an intraperitoneal injection of ketamine (100 mg/kg) and xylazine (5 mg/kg). Animals were inclined in a slightly head-down position, to allow gravity to move non-target abdominal organs out of the radiation path as much as possible.\nORE1001 in a vehicle of 0.5% carboxymethylcellulose (CMC) in sterile water was administered per os at a daily dose of 600 mg/kg in 5 ml/kg vehicle from day 0 to day 7 (first group) or from day −2 to day 7 (second group). A third group received vehicle only, from day −2 to day 7.\nAll animals were weighed daily and examined for diarrhea and fecal blood. On day 8, all animals were examined by rodent endoscope under isoflurane anesthesia and were scored for severity of proctitis. Following endoscopy, animals were euthanized by CO2 inhalation and the descending colon and rectum to the anus were taken as a single tissue sample for histological examination. Histopathology was recorded by scoring inflammation, edema and necrosis."}, "[2]": {"tested_on": "activator protein-1 (AP-1)", "assay": "Basal in vivo reporter luciferase expression in AP-1::Luc mice", "details": "data not shown"}, "[3]": {"tested_on": "NF-κB-dependent transcription", "assay": "TNFα-induced activation of NF-κB in recombinant HeLa reporter cells (luciferase)", "type": "cell-based", "excerpt": "To test the ACE2 inhibitor ORE1001 for anti-inflammatory activity relevant to IBD, effects of the compound on activation of NF-κB-dependent transcription by TNFα were examined in recombinant reporter cells containing a construct with a luciferase reporter gene under control of NF-κB-dependent regulatory sequences, thereby allowing detection of NF-κB-dependent transcription by measuring reporter enzyme using a conventional luciferase activity assay based on detection of generated light.\nIn particular, HeLa cells (American Type Culture Collection) were grown in Dulbecco's modified Eagles medium (DMEM) supplemented with 10% fetal calf serum and transiently transfected with an NF-κB—luc construct (Stratagene, Inc.), as follows (with all incubation steps at 37 C unless otherwise indicated). Cells were seeded and grown to about 70% confluency in a 10 cm cell culture dish. Plasmid DNA (10 μg) was added to 1 ml serum free DMEM media in a tube. Fugene 6 transfection reagent (30 μl) (Roche) was then pipetted slowly into the tube and the contents were gently mixed by inversion. The mixture was incubated at room temperature for 15 minutes and then added dropwise to cells in one 10 cm dish. Following incubation for 24 hours, cells were detached from the plate with Trypsin-EDTA (Gibco-BRL), transferred to wells in a clear-bottom white 96-well test plate (Fisher) with 100 μl per well serum free DMEM, at a density of 3×10^4 cells per well, and allowed to attach overnight. Compound (ORE1001) was then added to wells at a concentration of approximately 0, 0.008, 0.04, 0.2, 1.0 or 5.0 μM, followed immediately by addition of TNFα (R&D) to a final concentration of 20 ng/ml. After incubation for 6 hours, 100 μl of Bright-Glo Luciferase buffer (Promega, Cat#E2610) was added, and the plate was incubated at room temperature, with mild shaking, for 10 min. Bioluminescence was then measured using a Veritas luminometer (Turner BioSystems). Each plotted data point represents the average bioluminescence of 4 independent wells."}, "[4]": {"tested_on": "LPS-induced NF-κB-dependent transcription", "assay": "LPS-induced NF-κB-dependent transcription in extracted organs of NF-κB::Luc mice (luciferase assay)", "type": "in vivo", "details": "30 mg/kg; 0.5 mg/kg LPS; versus LPS alone", "excerpt": "For luciferase assays, organs were extracted and snap frozen in liquid nitrogen. All tissue samples were placed in lysis buffer with inhibitors (Passive Lysis Buffer (Promega) and Complete Mini Protease Inhibitor Cocktail (Roche, Indianapolis, Ind.)), and were homogenized using a tissue homogenizer (Handishear, Hand-held homogenizer, VirTis, Gardiner, N.Y.). Tissue homogenates were centrifuged and clarified lysates were used for luminometer assays and western blots. For the luminometer assays, Luciferase Assay Substrate (Luciferase Assay System, Promega) was prepared as indicated by the manufacturer and placed in disposable cuvettes. […] Background luminescence readings were obtained and the background readings were subtracted from the luminescent data. Protein concentrations were determined using the BCA Protein Assay Kit (Pierce, Rockford, Ill.) following the manufacturer's protocols and analyzed using a VERSAmax tunable microplate reader and associated Softmax Pro version 3.1.2 software (Molecular Devices, Sunnyvale Calif.). The luminescence for each of the protein lysates was calculated as arbitrary units of light per microgram of protein. […]\nORE1001 was further tested for in vivo anti-inflammatory activity by examining its effects on bacterial LPS-induced NF-κB-dependent transcription, in NF-κB::Luc mice. […] Luciferase signal was quantitated from several regions of interest. […]"}, "[5]": {"tested_on": "NF-κB-dependent transcription", "assay": "In vivo basal NF-κB-dependent transcription in NF-κB::Luc reporter mice (abdominal imaging)", "details": "4 hours", "excerpt": "ORE1001 was further tested for in vivo anti-inflammatory activity by examining its effects on basal levels of NF-κB-dependent transcription in mice engineered in the germline with a construct containing an NF-κB enhancer linked to a luciferase gene (i.e., NF-κB::Luc mice), such that this NF-κB reporter construct is present in all cells of the mice.\nMore particularly, transgenic NF-κB::Luc mice were generated using three NF-κB response elements from the Igic light chain promoter fused to a firefly luciferase gene as described by Carlsen et al. (2002) J. Immunol. 168:1441-1446. Pronuclear microinjection of purified construct DNA was used to generate transgenic founders in the C57BL/6 XCBA/J background. Founders were subsequently back crossed to the C57BL/6 albino background. […] Signal data were also quantitated and archived using the Living Image® software. Photons of light were quantitated using an oval region of interest (ROI) of varying sizes depending on the procedure, as described further below.\nTo test for in vivo effects of ORE1001 on basal levels of NF-κB-dependent transcription, male NF-κB::Luc mice were subjected to quantitative in vivo imaging of the abdominal area (using a fixed ROI of 2.76×3.7 cm) as described above, immediately before, and at 2, […]"}, "[6]": {"tested_on": "LPS-induced NF-κB signaling", "assay": "In vivo LPS-induced NF-κB-dependent transcription in NF-κB::Luc mice (abdominal imaging)", "excerpt": "More particularly, transgenic NF-κB::Luc mice were generated using three NF-κB response elements from the Igic light chain promoter fused to a firefly luciferase gene as described by Carlsen et al. (2002) J. Immunol. 168:1441-1446. Pronuclear microinjection of purified construct DNA was used to generate transgenic founders in the C57BL/6 XCBA/J background. Founders were subsequently back crossed to the C57BL/6 albino background. All experimental protocols were approved by the Institutional Animal Care and Use Committee and conform to the ILAR guide for the care and used of laboratory animals. […] Signal data were also quantitated and archived using the Living Image® software. Photons of light were quantitated using an oval region of interest (ROI) of varying sizes depending on the procedure, as described further below.\nORE1001 was further tested for in vivo anti-inflammatory activity by examining its effects on bacterial LPS-induced NF-κB-dependent transcription, in NF-κB::Luc mice. […] Mice were subjected to quantitative abdominal imaging at 2, 4 and 6 h following LPS administration, as described above. […] Luciferase signal was quantitated from several regions of interest. […]\nAs shown by the quantitative imaging data in FIG. 4, LPS induced a strong NF-κB-dependent luciferase signal in control mice, indicating a strong NF-κB signaling response, as expected. […]"}, "[7]": {"details": "600 mg/kg per os daily, day 0 to day 7"}, "[8]": {"details": "600 mg/kg per os daily, day −2 to day 7"}},
  "data": [
    {"smiles": "CC(C)C[C@H](N[C@@H](Cc1cncn1Cc1cc(Cl)cc(Cl)c1)C(=O)O)C(=O)O", "note": "[ORE1001, (S,S)-2-[1-carboxy-2-[3-(3,5-dichlorobenzyl)-3H-imidazol-4-yl]-ethylamino]-4-methylpentanoic acid]", "values": [
      {"measurement": "edema score (histopathology)", "setting": "[1]; [7]", "value": "statistically non-significant trend for reduction"},
      {"measurement": "necrosis score (histopathology)", "setting": "[1]; [7]", "value": "statistically non-significant trend for reduction"},
      {"measurement": "sum score (histopathology)", "setting": "[1]; [7]", "value": "statistically non-significant trend for reduction"},
      {"measurement": "proctitis severity (endoscopy, day 8)", "setting": "[1]; [7]", "value": "minor but statistically non-significant reduction"},
      {"measurement": "inflammation score (histopathology)", "setting": "[1]; [8]", "value": "statistically significant reductions"},
      {"measurement": "necrosis score (histopathology)", "setting": "[1]; [8]", "value": "statistically significant reductions"},
      {"measurement": "sum of inflammation, edema and necrosis scores", "setting": "[1]; [8]", "value": "statistically significant reductions"},
      {"measurement": "proctitis severity (endoscopy, day 8)", "setting": "[1]; [8]", "value": "substantial reduction"},
      {"measurement": "body weight change", "setting": "[1]; among the treatments", "value": "No major differences"},
      {"measurement": "basal in vivo levels of reporter luciferase expression", "setting": "[2]", "value": "no significant effect"},
      {"measurement": "inhibition of TNFα-induced activation of NF-κB-dependent transcription", "setting": "[3]; 8 nM, TNFα 20 ng/ml, 6 hours, HeLa", "value": "over 80%"},
      {"measurement": "maximal inhibition of TNFα-induced activation of NF-κB-dependent transcription", "setting": "[3]; 0.2 μM, TNFα 20 ng/ml, 6 hours, HeLa", "value": "over 95%"},
      {"measurement": "TNFα-induced activation of NF-κB-dependent transcription", "setting": "[3]; all tested concentrations (0.008-5.0 μM)", "value": "significantly inhibited"},
      {"measurement": "LPS-induced NF-κB signaling in pancreas and uterus, or any other organ analyzed", "setting": "[4]", "value": "no statistically significant decrease"},
      {"measurement": "reduction of LPS-induced NF-κB-dependent transcription in stomachs", "setting": "[4]", "value": "about 37 fold"},
      {"measurement": "inhibition of basal in vivo levels of NF-κB-dependent transcription in abdominal ROI", "setting": "[5]; 300 mg/kg subcutaneous, p<0.01", "value": "over 40%"},
      {"measurement": "inhibition of basal in vivo levels of NF-κB-dependent transcription in abdominal ROI", "setting": "[5]; both lower doses, subcutaneous", "value": "lesser but still significant extents"},
      {"measurement": "LPS-induced NF-κB signaling response, abdominal region", "setting": "[6]; FIG. 4, 30, 100, 300 mg/kg subcutaneous 1 hour before LPS i.v.", "value": "significantly reduced"},
      {"measurement": "LPS-induced NF-κB signaling, abdominal region", "setting": "[6]; FIG. 5, lower dose range 3-100 mg/kg, at 30 and 100 mg/kg", "value": "significantly reduced"}
    ]}
  ]
}
